The source of these data is DBAASP.

In brackets after ≈: the same amount, converted by molar mass.

Test systems include Candida albicans SC5314; Escherichia coli 09-240; Escherichia coli 09-280; Escherichia coli 170; Escherichia coli 5509.
What all share (assay): ≥ marks a high value that may be exact or a test limit, other limits are often not marked, values filed in µg/mL are converted to µM
The test system of experiment [1] is Escherichia coli HP101BA 7601c.
Experiment [2] relates to Klebsiella pneumoniae PTCC 1388.
The test system of experiment [3] is Staphylococcus aureus PTCC 1431.
The test system of experiment [4] is Streptococcus agalactiae PTCC 1365.
Experiment [5] deals with Streptococcus dysgalactiae PTCC 1074.
Experiment [6] relates to Acinetobacter baumannii I NM8.
Experiment [7] concerns Candida albicans ATCC 90028.
Experiment [8] has as its system Escherichia coli ATCC 25726.
For experiment [9], the system named is Klebsiella pneumoniae ATCC 700603.
Experiment [10] deals with Pseudomonas aeruginosa ATCC 27853.
The test system of experiment [11] is Staphylococcus aureus ATCC 25923.
For experiment [12], the system named is Acinetobacter baumannii ATCC 19606.
The test system of experiment [13] is Bordetella bronchiseptica CUN 11844-99.
The subject of experiment [14] is Escherichia coli ATCC 25922.
Experiment [15] relates to Pseudomonas aeruginosa CUN 4158-02.
For experiment [16], the system named is Staphylococcus aureus ATCC 43300.
The test system of experiment [17] is Staphylococcus aureus CUN 3792-99.
Experiment [18] has as its system Stenotrophomonas maltophilia CUN 3998-00.
Experiment [19] relates to Acinetobacter baumannii 5821.
Experiment [20] relates to Candida glabrata ATCC 90030.
Experiment [21] concerns Candida parapsilosis ATCC 22019.
Experiment [22] relates to Candida tropicalis ATCC 750.
Experiment [23] has as its system Cryptococcus neoformans var. grubii H99.
Experiment [24] has as its system Cryptococcus neoformans var. neoformans B3501.
Experiment [25] concerns Enterobacter cloacae 06-267.
The subject of experiment [26] is Enterobacter cloacae 14-262.
Experiment [27] concerns Klebsiella pneumoniae 01-239.
For experiment [28], the system named is Klebsiella pneumoniae 01-252.
Experiment [29] concerns Pseudomonas aeruginosa 3599.
Experiment [30] concerns Pseudomonas aeruginosa 5106.
Experiment [31] has as its system Pseudomonas aeruginosa ATCC 9027.
In experiment [32] the test system is Staphylococcus aureus 01-001.
The test system of experiment [33] is Staphylococcus aureus 06-051.
Experiment [34] concerns Staphylococcus aureus ATCC 29213.

Consider `CC(C)C[C@H](NC(=O)[C@H](C)NC(=O)[C@H](C)NC(=O)[C@H](CC(N)=O)NC(=O)[C@H](Cc1ccccc1)NC(=O)[C@H](CC(C)C)NC(=O)[C@@H]1CCCN1C(=O)[C@H](CCCCN)NC(=O)[C@H](CC(C)C)NC(=O)[C@@H](N)Cc1ccccc1)C(=O)N[C@@H](CCCCN)C(=O)N[C@@H](CC(C)C)C(=O)N[C@@H](CC(C)C)C(=O)N1CCC[C@H]1C(N)=O` [FLKPLFNAALKLLP], for which the MIC stood at 15.3 µM (≈ 24.2 µg/mL) in experiment [1]; 19.7 µM (≈ 31.2 µg/mL) in experiment [2]; 22.2 µM (≈ 35.2 µg/mL) in experiment [3]; 15.6 µM (≈ 24.7 µg/mL) in experiment [4]; 20.9 µM (≈ 33.2 µg/mL) in experiment [5].

Regarding `CC[C@H](C)[C@H](NC(=O)[C@H](CC(C)C)NC(=O)[C@H](Cc1cnc[nH]1)NC(=O)[C@@H]1CCCN1C(=O)[C@H](CC(C)C)NC(=O)[C@@H](NC(=O)[C@H](CCCCN)NC(=O)[C@H](C)NC(=O)[C@@H](NC(=O)CNC(=O)[C@H](CCCCN)NC(=O)[C@H](CC(C)C)NC(=O)CNC(=O)[C@H](CC(C)C)NC(=O)[C@H](CCCCN)NC(=O)[C@H](CC(C)C)NC(=O)[C@H](CC(C)C)NC(=O)[C@@H]1CCCN1C(=O)CNC(=O)[C@H](CC(C)C)NC(=O)[C@H](Cc1ccccc1)NC(=O)CN)C(C)C)C(C)C)C(=O)N1CCC[C@H]1C(=O)N[C@@H](CO)C(=O)N[C@@H](CCCN=C(N)N)C(=O)N[C@@H](CCC(N)=O)C(=O)N[C@@H](CCC(N)=O)C(=O)O` [GFLGPLLKLGLKGVAKVLPHLIPSRQQ], the MIC was 12.5 µM (≈ 36 µg/mL) in [6]; 25 µM (≈ 72 µg/mL) in [7]; 25 µM (≈ 72 µg/mL) in experiment [8]; 25 µM (≈ 72 µg/mL) in experiment [9]; 6 µM (≈ 17.3 µg/mL) in [10]; 6 µM (≈ 17.3 µg/mL) in experiment [11].

On to `NCCCC[C@H](NC(=O)CN)C(=O)N[C@@H](CCCCN)C(=O)N[C@@H](Cc1ccc(O)cc1)C(=O)N[C@@H](CCCN=C(N)N)C(=O)N[C@@H](CCCN=C(N)N)C(=O)N[C@@H](Cc1ccccc1)C(=O)N[C@@H](CCCN=C(N)N)C(=O)N[C@@H](Cc1c[nH]c2ccccc12)C(=O)N[C@@H](CCCCN)C(=O)N[C@@H](Cc1ccccc1)C(=O)N[C@@H](CCCN=C(N)N)C(=O)N[C@@H](CCCCN)C(=O)NCC(=O)N[C@@H](CCCN=C(N)N)C(=O)N[C@@H](Cc1ccccc1)C(=O)N[C@@H](Cc1c[nH]c2ccccc12)C(=O)N[C@@H](Cc1ccccc1)C(=O)N[C@@H](Cc1c[nH]c2ccccc12)C(=O)NCC(N)=O` [GKKYRRFRWKFRKGRFWFWG], for which the MIC in [12] is 5.73 µM (≈ 16 µg/mL); in [13] it was 1.43 µM (≈ 4 µg/mL); in experiment [14], 5.73 µM (≈ 16 µg/mL); in experiment [10] it was 5.73 µM (≈ 16 µg/mL); in [15], 11.5 µM (≈ 32 µg/mL); in [11], 5.73 µM (≈ 16 µg/mL). Besides, the figures for the MIC in experiment [16], in experiment [17] and in experiment [18] were 5.73 µM (≈ 16 µg/mL), 5.73 µM (≈ 16 µg/mL) and 22.9 µM (≈ 64 µg/mL), respectively.

Turning to `CC[C@H](C)[C@H](N)C(=O)N[C@@H](CC(C)C)C(=O)N[C@@H](CO)C(=O)N[C@@H](C)C(=O)N[C@H](C(=O)N[C@@H](Cc1c[nH]c2ccccc12)C(=O)N[C@@H](CO)C(=O)NCC(=O)N[C@H](C(=O)N[C@@H](CCCCN)C(=O)N[C@@H](CO)C(=O)N[C@@H](CC(C)C)C(=O)N[C@@H](Cc1ccccc1)C(N)=O)[C@@H](C)CC)[C@@H](C)CC` [ILSAIWSGIKSLF], the MIC was 10 µM (≈ 14.3 µg/mL) in experiment [19]; 25 µM (≈ 35.8 µg/mL) against Candida albicans SC5314; at least 400 µM in experiment [20]; at least 400 µM in experiment [21]; 25 µM (≈ 35.8 µg/mL) in [22]; 25 µM (≈ 35.8 µg/mL) in experiment [23]. Besides, the MIC in [24] is 12.5 µM (≈ 17.9 µg/mL); in [25] it was at least 32 µM; in [26], at least 32 µM; against Escherichia coli 09-240, 30 µM (≈ 43 µg/mL); in the experiment with Escherichia coli 09-280 it was at least 32 µM; in the experiment with Escherichia coli 170, at least 32 µM. The MIC is at least 32 µM in the experiment with Escherichia coli 5509; 15 µM (≈ 21.5 µg/mL) in experiment [14]; 30 µM (≈ 43 µg/mL) in experiment [27]; at least 32 µM in experiment [28]; at least 32 µM in experiment [29]; at least 32 µM in [30]. Moreover, the MIC in experiment [10] is above 32 µM; in experiment [31] it was 6 µM (≈ 8.6 µg/mL); in experiment [32] it was 4 µM (≈ 5.74 µg/mL); in experiment [33], 4 µM (≈ 5.74 µg/mL); in [11] it was 10 µM (≈ 14.3 µg/mL); in [34] it was 8 µM (≈ 11.5 µg/mL).

By MIC is commonly meant the lowest concentration found to suppress growth.
